# PMC8707461, “In Vitro and In Vivo Inhibition of MATE1 by Tyrosine Kinase Inhibitors” (Pharmaceutics, 2021)
# pIC50: −log10 of the molar value. Read-outs that look alike come from different tables or passages of the source.
# Assays:
# MATE1 [1] = biological target: T1, MATE1 (Homo sapiens, UniProt Q96FL8); experiment: [14C]TEA uptake in HEK293 cells overexpressing human MATE1; details: for inhibition of MATE1-mediated uptake of TEA (in words): TKI 10 µM; for inhibition at 10 µM: human
# T1 sequence (Q96FL8 1-570): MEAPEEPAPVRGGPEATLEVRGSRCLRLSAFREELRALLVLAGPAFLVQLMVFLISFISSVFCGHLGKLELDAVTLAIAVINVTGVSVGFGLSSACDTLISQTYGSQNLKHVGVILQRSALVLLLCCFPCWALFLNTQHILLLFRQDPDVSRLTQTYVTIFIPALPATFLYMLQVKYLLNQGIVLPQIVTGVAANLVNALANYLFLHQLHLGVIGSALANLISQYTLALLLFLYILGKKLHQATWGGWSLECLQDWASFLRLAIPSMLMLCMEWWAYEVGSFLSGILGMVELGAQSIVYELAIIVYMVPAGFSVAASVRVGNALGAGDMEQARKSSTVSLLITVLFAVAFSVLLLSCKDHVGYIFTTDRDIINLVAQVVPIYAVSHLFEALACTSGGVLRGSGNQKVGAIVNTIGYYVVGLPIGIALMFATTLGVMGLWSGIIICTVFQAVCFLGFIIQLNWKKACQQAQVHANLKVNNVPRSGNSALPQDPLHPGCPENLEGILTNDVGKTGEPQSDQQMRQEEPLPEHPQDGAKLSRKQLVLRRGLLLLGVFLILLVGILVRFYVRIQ
# Procedure: (§1) Uptake experiments in HEK293 cells overexpressing mouse (m) and human (h) OCT2 or MATE1 were performed with radiolabeled tetraethylammonium (TEA) as the model substrate, using standard methods in the presence or absence of TKIs. The cell culture and uptake conditions for cells expressing mMATE1 or hMATE1 were described previously. […] Since the inhibitory potential of various xenobiotics against OCT2 and MATE1 is dependent on preincubation with perpetrator drugs, a 15-min preincubation period with the TKIs was employed unless stated otherwise. All results were normalized to uptake values in cells transfected with an empty vector or DMSO-treated groups.
# (§2) MATE1-overexpressed cells were pre-incubated with transport media containing 30 mM ammonium chloride for 20 min at 37 °C following previously published protocol (pH 7.4 for hMATE1 [17, 18, 19] and pH 8.4 for mMATE1 [20, 21]) to ensure interactions can be evaluated between outward-facing MATE1 and substrate uptake before adding inhibitors. Then, preincubation media was removed and cells were incubated with transport media (NH4Cl free) containing radiolabeled compounds. […] The uptake of TEA and metformin was measured by liquid scintillation counting, as described previously. For uptake studies involving platinum drugs, cells were collected with TrypLE, and the pellets were lysed overnight in 0.2% nitric acid. After sonication, total platinum levels were determined by flameless atomic absorption spectrometry.
# MATE1 [2] = details: cited from earlier work
# human OCT2 = biological target: T2, human OCT2 (Homo sapiens, UniProt O15244); experiment: [14C]TEA uptake in HEK293 cells stably transfected with human OCT2; type: cell-based; details: TKI 10 µM
# T2 construct: host or cells: HEK293 (Flp-In system, pcDNA5/FRT)
# T2 sequence (O15244 1-555): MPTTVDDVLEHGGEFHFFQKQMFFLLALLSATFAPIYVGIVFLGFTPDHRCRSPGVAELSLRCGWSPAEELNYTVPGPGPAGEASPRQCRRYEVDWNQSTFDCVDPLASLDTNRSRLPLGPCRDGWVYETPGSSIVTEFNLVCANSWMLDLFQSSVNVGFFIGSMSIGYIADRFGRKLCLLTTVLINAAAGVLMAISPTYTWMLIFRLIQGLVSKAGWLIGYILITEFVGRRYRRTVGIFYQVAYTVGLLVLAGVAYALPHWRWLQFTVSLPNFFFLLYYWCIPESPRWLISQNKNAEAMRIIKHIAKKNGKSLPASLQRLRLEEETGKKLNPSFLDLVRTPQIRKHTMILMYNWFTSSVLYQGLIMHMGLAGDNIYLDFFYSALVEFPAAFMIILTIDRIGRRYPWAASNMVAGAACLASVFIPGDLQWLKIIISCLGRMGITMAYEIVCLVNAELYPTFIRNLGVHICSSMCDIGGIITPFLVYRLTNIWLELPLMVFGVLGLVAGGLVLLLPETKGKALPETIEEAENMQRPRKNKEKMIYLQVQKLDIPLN
# Procedure: as §1, §2
# [3] = parameters: method as in PMID 18787054; details: cited from earlier work
# MATE1 [4] = experiment: Plasma N-methylnicotinamide (NMN) as MATE1 biomarker in mice after dasatinib; type: in vivo, mouse; details: wild-type mice, dasatinib 15 mg/kg oral
# MATE1 gene = MATE1 gene expression by RT-PCR in MATE1-overexpressing cells exposed to TKIs; type: cell-based, human
# Text: RNA was extracted using the Qiagen kit from treated cells in 12-well plates or kidney tissues obtained from untreated or treated mice. Taqman primers Hs00217320_m1 and Mm00840361_m1 were obtained from Thermo Fisher Scientific (Waltham, MA, USA) and used for the hMATE1 and mMATE1 genes. The primers Hs02786624_g1 and Mm99999915_g1 were used as the house-keeping control genes for hGAPDH and mGAPDH, respectively.
# [5] = test system: mouse OCT2, or MATE1 transporters; details: dasatinib 10 µM, oxaliplatin 50 µM
# Procedure: as §1
# as §2, with “For uptake studies involving platinum drugs, cells were collected with TrypLE, and the pellets were lysed overnight in 0.2% nitric acid.” left out
# [6] = test system: human OCT2, or MATE1 transporters; details: dasatinib 10 µM, oxaliplatin 50 µM
# Procedure: as §1
# as §2, with “For uptake studies involving platinum drugs, cells were collected with TrypLE, and the pellets were lysed overnight in 0.2% nitric acid.” left out
# mouse MATE1 = biological target: T3, mouse MATE1 (Mus musculus, UniProt Q8K0H1); experiment: cell-based
# T3 sequence (Q8K0H1 1-567): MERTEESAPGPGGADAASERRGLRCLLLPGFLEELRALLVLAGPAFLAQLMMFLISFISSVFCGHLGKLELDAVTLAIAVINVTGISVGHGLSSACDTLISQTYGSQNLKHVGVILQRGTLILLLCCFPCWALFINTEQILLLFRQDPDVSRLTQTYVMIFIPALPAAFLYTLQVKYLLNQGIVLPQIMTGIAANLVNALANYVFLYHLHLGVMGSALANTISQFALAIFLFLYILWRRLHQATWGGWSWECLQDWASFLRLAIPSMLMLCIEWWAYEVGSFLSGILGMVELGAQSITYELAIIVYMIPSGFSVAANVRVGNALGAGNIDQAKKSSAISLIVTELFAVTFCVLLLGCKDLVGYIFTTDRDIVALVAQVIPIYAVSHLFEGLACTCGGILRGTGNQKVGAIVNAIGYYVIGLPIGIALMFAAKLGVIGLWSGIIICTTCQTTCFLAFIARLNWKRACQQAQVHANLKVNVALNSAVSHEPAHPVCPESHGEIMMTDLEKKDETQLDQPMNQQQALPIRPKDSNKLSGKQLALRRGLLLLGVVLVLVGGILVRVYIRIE
# Procedure: as §1, §2
# [7] = Murine plasma pharmacokinetics of total platinum; type: in vivo, mouse
# Text: For pharmacokinetic studies, plasma and tissue samples were collected from male wild-type mice (8–12 weeks old), and age-matched MATE1-deficient [MATE1(−/−)] mice, and mice additionally deficient for OCT1 and OCT2 [OCT1/2/MATE1(−/−)], following an established protocol. All animals were backcrossed on an FVB strain, were given a standard diet and water ad libitum, and housed and handled in accordance with the University Laboratory Animal Resources (ULAR) Animal Care and Use Committee at The Ohio State University (2015A00000101-R1). […] Concentrations of total platinum in plasma and tissues were measured by flameless atomic absorption spectrometry, as previously reported, by interpolation of unknown readings on linear calibration curves prepared in drug-free nitric acid (0.2%) using linear-least squares regression analysis.
# [8] = Urinary excretion of oxaliplatin in mice (metabolic cages); type: in vivo, mouse; details: mice deficient in MATE1 or both OCT2 and MATE1 vs wild-type; oxaliplatin 10 mg/kg i.p.
# [9] = cited from earlier work
# [10] = Human plasma pharmacokinetics of total platinum, patient with colorectal cancer; type: in vivo; details: oxaliplatin 85 mg/m2 i.v. infusion
# Procedure: In order to assess the degree of MATE1 inhibition by dasatinib, analyses of N-methylnicotinamide (see below) were performed in plasma samples collected at serial time points (up to 24 h after the end of infusion). Plasma samples were also subjected to dasatinib analysis by liquid chromatography with tandem mass spectrometric detection (LC-MS/MS) and analyzed for total platinum levels by flameless atomic absorption spectrometry. The study protocol (ClinicalTrial.gov Identifier: NCT04164069) was approved by the institutional review board of the -The Ohio State University Comprehensive Cancer Center (OSU IRB #2019C0141, approval date 01 March 2019), and the patient provided written informed consent prior to enrollment.
# [11] = HEK293 cells overexpressing human MATE1, pH 7.4, probe [14C]TEA (tetraethylammonium), 2 µM
# [12] = publicly available information, ref FDA/EMA or supplement refs 1-8
# [13] = Mouse IC50, HEK293 cells overexpressing mouse MATE1
# [14] = OCT1,2/MATE1-/- mice + dasatinib 15 mg/kg p.o. pretreatment, oxaliplatin 10 mg/kg i.p.
# [15] = OCT1,2/MATE1-/- mice, cisplatin 15 mg/kg i.p. or oxaliplatin 10 mg/kg i.p.
# [16] = wild-type mice + dasatinib 15 mg/kg p.o. pretreatment, oxaliplatin 10 mg/kg i.p.
# [17] = wild-type mice, cisplatin 15 mg/kg i.p. or oxaliplatin 10 mg/kg i.p.
# [18] = dasatinib pre-treatment 100 mg p.o.
smiles,measurement,setting,value
COc1cc(Nc2c(C#N)cnc3cc(OCCCN4CCN(C)CC4)c(OC)cc23)c(Cl)cc1Cl [Bosutinib],inhibition of MATE1-mediated uptake of TEA (in words),MATE1 [1],potently inhibiting
same,inhibition at 10 µM,MATE1 [1]; [11],99.2%
same,pIC50,MATE1 [2]; [12],> 5.00
same,influence on OCT2 function (in words),human OCT2,potently inhibiting
Cc1nc(Nc2ncc(C(=O)Nc3c(C)cccc3Cl)s2)cc(N2CCN(CCO)CC2)n1 [Dasatinib],kidney-to-blood concentration ratio,[3],[…]
same,inhibition of MATE1-mediated uptake of TEA (in words),MATE1 [1],completely inhibited
same,inhibition at 10 µM,MATE1 [1]; [11],95.4%
same,plasma levels of NMN (in words),MATE1 [4],"transient, statistically significant increase"
same,expression of MATE1 (in words),MATE1 gene,downregulated
same,suppression of MATE1 gene expression,MATE1 gene,~ 50%
same,ability of cells to transport oxaliplatin after dasatinib pre-treatment (in words),[5],dramatically impaired
same,ability of cells to transport oxaliplatin after dasatinib pre-treatment (in words),[6],dramatically impaired
C=CC(=O)N1CCC[C@@H](n2nc(-c3ccc(Oc4ccccc4)cc3)c3c(N)ncnc32)C1 [Ibrutinib],pIC50,MATE1 [1],5.99
same,inhibition at 10 µM,MATE1 [1]; pH 7.4,91.8%
same,pIC50,mouse MATE1,4.29
Cc1cn(-c2cc(NC(=O)c3ccc(C)c(Nc4nccc(-c5cccnc5)n4)c3)cc(C(F)(F)F)c2)cn1 [Nilotinib],inhibition at 10 µM,MATE1 [1]; [11],95.7%
same,pIC50,mouse MATE1; [13],4.34
same,expression of MATE1 (in words),MATE1 gene,downregulated
O=C1[O][Pt]2([NH][C@@H]3CCCC[C@H]3[NH]2)[O]C1=O [Oxaliplatin],AUC,[7]; [14],7530 ± 900 ng·h/mL
same,Cmax,[7]; [14],3860 ± 10 ng/mL
same,AUC,[7]; [15],10500 ± 10 ng·h/mL
same,Cmax,[7]; [15],3610 ± 180 ng/mL
same,AUC,[7]; [16],12200 ± 710 ng·h/mL
same,Cmax,[7]; [16],4800 ± 10 ng/mL
same,plasma pharmacokinetic profile after dasatinib pretreatment (in words),"[7]; wild-type mice, single dose of dasatinib 15 mg/kg",unchanged
same,AUC,[7]; [17],10700 ± 1000 ng·h/mL
same,Cmax,[7]; [17],2760 ± 40 ng/mL
same,reduction of urinary excretion,[8],about 2 fold
same,fecal excretion,[9],about 2 % of the dose
same,urinary excretion,[9],> 50 % of the dose
same,AUC,[10]; [18],11600 ng·h/mL
same,Cmax,[10]; [18],870 ng/mL
same,AUC,[10]; without dasatinib,11300 ng·h/mL
same,Cmax,[10]; without dasatinib,960 ng/mL
CNC(=O)c1cc(Oc2ccc(NC(=O)Nc3ccc(Cl)c(C(F)(F)F)c3)c(F)c2)ccn1 [Regorafenib],inhibition at 10 µM,MATE1 [1]; [11],72.1%
same,pIC50,MATE1 [2]; [12],> 5.00
same,influence on OCT2 function (in words),human OCT2,no influence
CNC(=O)c1cc(Oc2ccc(NC(=O)Nc3ccc(Cl)c(C(F)(F)F)c3)cc2)ccn1 [Sorafenib],inhibition at 10 µM,MATE1 [1]; [11],83.8%
same,influence on OCT2 function (in words),human OCT2,no influence
CCN(CC)CCNC(=O)c1c(C)[nH]c(/C=C2\C(=O)Nc3ccc(F)cc32)c1C [Sunitinib],inhibition of MATE1-mediated uptake of TEA (in words),MATE1 [1],potently inhibiting
same,inhibition at 10 µM,MATE1 [1]; pH 7.4,98%
same,influence on OCT2 function (in words),human OCT2,potently inhibiting
CN/C(=N/CCSCc1nc[nH]c1C)NC#N [cimetidine],pIC50,mouse MATE1; [13],< 4.30
